What was measured:
[1] = tested on: symptoms associated with bacterial vaginosis; assay: Treatment of a person with recurrent vaginal fishy-smelling secretions (Example 9); format: in vivo, human; settings: after two 7-day treatments
Description: A person had suffered from discomfort and vaginal secretions of fishy smell recurring after two 7-day treatments with metronidazole. The vaginal pH was approximately 5.3, varying between 5.0 and 5.5.
A lactose suspension (1-3 ml) as prepared in Example 8 was instilled into the vagina twice daily. After approximately 24 hours the pH lowered to 4.7 and the fishy odor disappeared. Continuous application once a day further lowered the pH down to approximately 4.4. The treatment was continued for 4 days.
After 4 days symptoms such as the fishy odor recurred; however, the symptoms disappeared after one day of the treatment described above.

Bacterial Vaginosis = settings: cited from earlier work

| Molecule | discomfort and vaginal secretions of fishy smell after treatment [1] | cure rate (Bacterial Vaginosis; 7-day treatment, after 1 month) | side effects (Bacterial Vaginosis; 7-day treatment) | benefits in studies (Bacterial Vaginosis; alternative measures) |
| --- | --- | --- | --- | --- |
| Cc1ncc([N+](=O)[O-])n1CCO [Metronidazole] | recurring | 80-90% | nausea, abdominal cramps and a metallic taste | – |
| Lactobacillus acidophilus | – | – | – | have not demonstrated benefits |
| CCC[C@@H]1C[C@@H](C(=O)N[C@@H]([C@H]2O[C@H](SC)[C@H](O)[C@@H](O)[C@H]2O)[C@H](C)Cl)N(C)C1 [Clindamycin] | – | – | less, though diarrhea is possible | – |
